Source: US8071586B2, “Heterocyclyl compounds” (Hoffmann-La Roche Inc., priority 2008, dated 2011)

Target: T1, human chemokine receptor 2 isoform B (CCR2) (Homo sapiens, UniProt P41597)
T1 sequence (P41597 1-360 isoform P41597-2): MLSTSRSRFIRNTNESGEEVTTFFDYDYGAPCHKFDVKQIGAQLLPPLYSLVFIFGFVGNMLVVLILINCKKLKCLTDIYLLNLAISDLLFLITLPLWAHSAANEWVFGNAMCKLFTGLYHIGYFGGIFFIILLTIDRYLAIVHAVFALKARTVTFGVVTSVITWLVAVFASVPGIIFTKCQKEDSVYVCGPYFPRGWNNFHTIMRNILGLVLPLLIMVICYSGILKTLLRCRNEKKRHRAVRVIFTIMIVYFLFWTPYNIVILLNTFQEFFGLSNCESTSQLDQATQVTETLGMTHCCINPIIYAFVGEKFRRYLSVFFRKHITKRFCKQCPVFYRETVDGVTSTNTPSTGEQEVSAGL
Assay: Calcium mobilization assay (FLIPR, MCP-1 stimulated CHOK1-CCR2B-A5 cells)
Format: cell-based
Conditions: Ca mobilisation assay, CCR2 antagonist activity, inhibition of MCP-1 induced calcium increase
In short: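 Fluo-4-loaded CHOK1 cells stably expressing human CCR2B were preincubated with compound 20-30 min at 30 °C in DMEM/Hepes/probenecid/0.1% BSA buffer with 0.5% DMSO, then challenged with […] MCP-1. FLIPR calcium signal (max minus basal) gave IC50; agonism also monitored.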

Row | SMILES | IC50 [nM]
1 | COCC(CCN1CCC2(CC2)[C@H](O)C1)N1CCN(C(=O)Nc2cccc(Cl)c2)CCC1=O (stereo partly drawn) [Example 5, (R,S)-4-[3-((S)-4-Hydroxy-6-aza-spiro[2.5]oct-6-yl)-1-methoxymethyl-propyl]-5-oxo-[1,4]diazepane-1-carboxylic acid (3-chloro-phenyl)-amide] | 50
2 | C[C@H]1C(=O)N(CCCN2CCCCC2)CCN1C(=O)Nc1ccc(F)c(Cl)c1 [Example 42, (S)-2-Methyl-3-oxo-4-(3-piperidin-1-yl-propyl)-piperazine-1-carboxylic acid (3-chloro-4-fluoro-phenyl)-amide] | 110
3 | C[C@H]1C(=O)N(CCCN2CCCCC2)CCN1C(=O)Nc1ccc2ccccc2c1 [Example 40, (S)-2-Methyl-3-oxo-4-(3-piperidin-1-yl-propyl)-piperazine-1-carboxylic acid naphthalen-2-ylamide] | 360
4 | COC[C@@H](CCN1CCC2(CC2)[C@H](O)C1)N1CCN(C(=O)Nc2ccc(Cl)c(Cl)c2)CCC1=O [Example 57, 4-[(R)-3-((S)-4-hydroxy-6-aza-spiro[2.5]oct-6-yl)-1-methoxymethyl-propyl]-5-oxo-[1,4]diazepane-1-carboxylic acid (3,4-dichloro-phenyl)-amide] | 240
5 | C[C@H]1C(=O)N(CCCN2CCCCC2)CCN1C(=O)Nc1cccc(Cl)c1 [Example 35, (S)-2-Methyl-3-oxo-4-(3-piperidin-1-yl-propyl)-piperazine-1-carboxylic acid (3-chloro-phenyl)-amide] | 940
6 | C[C@H]1C(=O)N(CCCN2CCCCC2)CCN1C(=O)Nc1ccc(-c2ccccc2)cc1 [Example 38, (S)-2-Methyl-3-oxo-4-(3-piperidin-1-yl-propyl)-piperazine-1-carboxylic acid biphenyl-4-ylamide] | 210
7 | O=C(NCc1ccc(Cl)c(Cl)c1)OC[C@H](CCN1CCC2(CC2)[C@H](O)C1)N1CCN(C(=O)NCc2ccc(Cl)c(Cl)c2)CCC1=O [Example 52, (3,4-dichloro-benzyl)-carbamic acid (S)-2-[4-(3,4-dichloro-benzylcarbamoyl)-7-oxo-[1,4]diazepan-1-yl]-4-((S)-4-hydroxy-6-aza-spiro[2.5]oct-6-yl)-butyl ester] | 960
8 | CCNC(=O)OC[C@H](CCN1CCC2(CC2)[C@H](O)C1)N1CCN(C(=O)Nc2cccc(Cl)c2)[C@@H](C)C1=O [Example 111, Ethyl-carbamic acid (S)-2-[(S)-4-(3-chloro-phenylcarbamoyl)-3-methyl-2-oxo-piperazin-1-yl]-4-((S)-4-hydroxy-6-aza-spiro[2.5]oct-6-yl)-butyl ester] | 17
9 | C[C@H]1C(=O)N(CCCN2CCC3(CC3)[C@H](O)C2)CCN1C(=O)Nc1cccc(F)c1 [Example 73, (S)-4-[3-((S)-4-Hydroxy-6-aza-spiro[2.5]oct-6-yl)-propyl]-2-methyl-3-oxo-piperazine-1-carboxylic acid (3-fluoro-phenyl)-amide] | 21
10 | C[C@H]1C(=O)N(CCCN2CCCCC2)CCN1C(=O)Nc1ccc(Cl)c(Cl)c1 [Example 37, (S)-2-Methyl-3-oxo-4-(3-piperidin-1-yl-propyl)-piperazine-1-carboxylic acid (3,4-dichloro-phenyl)-amide] | 50
11 | O=C1CCN(C(=O)Nc2ccc(Cl)c(Cl)c2)CCN1CCCN1CCCCC1 [Example 11, 5-Oxo-4-(3-piperidin-1-yl-propyl)-[1,4]diazepane-1-carboxylic acid (3,4-dichloro-phenyl)-amide] | 980

Compounds with a lower IC50, results first:

Row | IC50 [nM] | SMILES
12 | 16 | C[C@H]1C(=O)N([C@@H](CCN2CCC3(CC3)[C@H](O)C2)C(=O)N(C)C)CCN1C(=O)Nc1cccc(Cl)c1 [Example 125, (S)-4-[(S)-1-Dimethylcarbamoyl-3-((S)-4-hydroxy-6-aza-spiro[2.5]oct-6-yl)-propyl]-2-methyl-3-oxo-piperazine-1-carboxylic acid (3-chloro-phenyl)-amide]
13 | 10 | CC(=O)OC[C@H](CCN1CCC2(CC2)[C@H](O)C1)N1CCN(C(=O)Nc2cccc(Cl)c2)[C@@H](C)C1=O [Example 109, Acetic acid (S)-2-[(S)-4-(3-chloro-phenylcarbamoyl)-3-methyl-2-oxo-piperazin-1-yl]-4-((S)-4-hydroxy-6-aza-spiro[2.5]oct-6-yl)-butyl ester]
14 | 10 | CC(C)C(=O)OC[C@H](CCN1CCC2(CC2)[C@H](O)C1)N1CCN(C(=O)Nc2ccc(Cl)c(Cl)c2)[C@@H](C)C1=O [Example 115, Isobutyric acid (S)-2-[(S)-4-(3,4-dichloro-phenylcarbamoyl)-3-methyl-2-oxo-piperazin-1-yl]-4-((S)-4-hydroxy-6-aza-spiro[2.5]oct-6-yl)-butyl ester]
15 | 10 | O=C(Nc1cccc(Cl)c1)N1CCC(=O)N([C@H](CO)CCN2CCC3(CC3)[C@H](O)C2)CC1 [Example 4, 4-[(S)-3-((S)-4-Hydroxy-6-aza-spiro[2.5]oct-6-yl)-1-hydroxymethyl-propyl]-5-oxo-[1,4]diazepane-1-carboxylic acid (3-chloro-phenyl)-amide]
16 | 8 | C[C@H]1C(=O)N(CCCN2CCC3(CC3)[C@H](O)C2)CCN1C(=O)Nc1ccc(Cl)cc1 [Example 72, (S)-4-[3-((S)-4-Hydroxy-6-aza-spiro[2.5]oct-6-yl)-propyl]-2-methyl-3-oxo-piperazine-1-carboxylic acid (4-chloro-phenyl)-amide]
17 | 4 | COc1ccc(C(=O)OC[C@H](CCN2CCC3(CC3)[C@H](O)C2)N2CCN(C(=O)Nc3ccc(Cl)c(Cl)c3)[C@@H](C)C2=O)cc1 [Example 119, 4-Methoxy-benzoic acid (S)-2-[(S)-4-(3,4-dichloro-phenylcarbamoyl)-3-methyl-2-oxo-piperazin-1-yl]-4-((S)-4-hydroxy-6-aza-spiro[2.5]oct-6-yl)-butyl ester]
18 | 1 | C[C@H]1C(=O)N(CCCCN2CCC3(CC3)[C@H](O)C2)CCN1C(=O)Nc1ccc(Cl)c(Cl)c1 [Example 90, (S)-4-[4-((S)-4-Hydroxy-6-aza-spiro[2.5]oct-6-yl)-butyl]-2-methyl-3-oxo-piperazine-1-carboxylic acid (3,4-dichloro-phenyl)-amide]
